Data set [1] in a line: Aqueous solubility by nephelometry. Particulars: aqueous medium (not further specified), kinetic from dmso stock, measured by nephelometry. It is filed as physicochemical. From the text: (§1) Due to a lack of UV chromophore and/or poor mass spectrometry ionisation, nephelometry46 was used to measure the solubility. PAMPA (parallel artificial membrane permeability assay)47 was used to assess the permeability.

The nature of data set [2]: PAMPA (parallel artificial membrane permeability assay). The data set is classed as in vitro ADME.
Text: as §1
Background: In PAMPA a lipid-coated filter parts donor from acceptor wells.

A short description of data set [3]: Permeability across a Caco-2 monolayer. Particulars: human, read-out: permeability across a monolayer of Caco‐2 cells. The data set is classed as in vitro ADME, human. (Passage across Caco-2 layers is used to estimate intestinal permeability.)
In data set [4] the test system is Caco‐2 human intestinal cancer cells. Put plainly: Permeability across a Caco-2 monolayer. The data set is classed as in vitro ADME.
Data set [5] has as its system PC3 human prostate cancer cell line. Put plainly: NCI panel growth inhibition, PC3 line. The data set is classed as cell-based. Particulars: PC3, single concentration of 10 µM, 48 h, NCI screen, read-out: inhibition of proliferation. How it is done: A selection of fifteen of the cembranoid‐inspired compounds was screened against a panel of 60 cancer cell lines at the National Cancer Institute screening panel (see the Supporting Information).49 This cell‐based assay aims to discover compounds with a strong cytostatic or cytotoxic growth inhibition over 48 h. Unfortunately, only low levels (up to 20 %) of cell growth inhibition were seen when screened at a single concentration of 10 µM.

Data set [6] deals with PC3 cells. Put plainly: SRB antiproliferative concentration-response assay. The data set is classed as cell-based. The following applies: Homo sapiens, PC-3, in vitro 96 h assay, full dose response curve. On the procedure:
(§2) Figure 6 a) Concentration–response curve for the antiproliferative effect of compound 28 on PC3 cells in vitro 96 h assay. b) Compound 28 inhibiting the migration properties of PC3 TEM cancer cells. FCS=fetal calf serum.
Cells were seeded in 100μl medium into 96-well plates. After 36 hours, serial doubling dilutions of drug (or vehicle) were added to give the required dose range in sextuplicate across the plate. Cells were incubated for a further 96 hours. The medium was then removed and cells were fixed by adding 50μl of 10% (w/v) trichloroacetic acid (TCA) for one hour at room temperature. The plates were gently washed by immersion in tap water three times then air dried. 50μl of 0.4% (w/v) SRB in 1% (v/v) acetic acid was added to each well for one hour. […] Absorbance at 570nm was measured using a SPECTRAmax 340PC plate reader.
(§3) Cells in standard tissue culture flasks were fluorescently labelled by incubation with 1umol/L CellTracker Green 5-chloromethylfluorescein diacetate (Invitrogen, Paisley) concomitant with serum starvation for two hours. Following trypsinisation cells were counted and added to the upper wells of 8um pore FluoroblokTM membrane inserts in 24-well companion plates (BD Biosciences, Franklin Lakes, NJ). […] Cells which successfully migrated to the lower surface of the filter were visualised using an inverted fluorescence

For a further data set, the system named is PC3 TEM cancer cells. Put plainly: Migration assay (Fluoroblok membrane, FCS chemotaxis). It is filed as cell-based, human. The following applies: 3‐ and 5‐fold GI50 concentrations, FCS-stimulated migration. How it is done:
as §2
Whereas cembranoid natural products may not be inherently cytotoxic, an appreciable number do display an ability to inhibit the migratory and invasive properties of cancer cells.50 The effect of compound 28 on a PC3‐based migratory assay was therefore determined.
Cells were seeded in 100μl medium into 96-well plates. After 36 hours, serial doubling dilutions of drug (or vehicle) were added to give the required dose range in sextuplicate across the plate. Cells were incubated for a further 96 hours. […] Absorbance at 570nm was measured using a SPECTRAmax 340PC plate reader.
as §3

Data set [7] relates to L1210 mouse lymphocytic leukemia cells. Also on record: method as in earlier work. Particulars: in vitro; cited from earlier work.
Data set [8] has as its system PC3 cells. Particulars: 50 µM; cited from earlier work.
The next data set concerns cancer cells. More on the design: method as in PMID 20420415. The following applies: 50 µM; cited from earlier work.

The structures appear in SMILES notation. ≈ marks a conversion by molar mass, not a printed value. Some results are limits rather than exact numbers.

Usually solubility stands for the dissolved amount per volume that the medium holds. Low values mean little dissolved substance, high ones much dissolved substance. For the compound `C=CCC1OC(COC(=O)C=CC)C2CC=CCC12` (stereo not drawn) [Compound 15], the concentration in solution in data set [1] (solubility) was 500 µM (≈ 131 µg/mL). Also, in data set [2], the permeability (Pe) turned out to be 25 ×10⁻⁶ cm/s.

What is called GI50 is the concentration giving 50% growth inhibition. For the compound `O=C1CCC/C=C/C[C@@H]2O[C@H](CO1)[C@H]1CCCC[C@H]12` [Compound 28], in [1], the concentration in solution (solubility) was 550 µM (≈ 145 µg/mL). In [2], this compound had a permeability (Pe) of 52 ×10⁻⁶ cm/s. Moreover, the Papp in data set [3] came out at 16 ×10⁻⁶ cm/s. For the same compound, in data set [4], the transporter efflux result is “no evidence of transporter efflux”. In [5], the inhibition at 10 µM is 17%. The compound also had a GI50 with PC3 cells [6] of 63 µM. The “effect on cell migration” value in the data set with PC3 TEM cancer cells is on record as “reduction to near basal levels of migration”.

In turn, `CC1(C)CCC(=O)OCC2OC1C1CCCCC21` (stereo not drawn) [Compound 65] had a solubility in data set [1] of 550 µM (≈ 139 µg/mL). The compound also gave a permeability (Pe) in data set [2] of more than 150 ×10⁻⁶ cm/s.

`OC1CCC=CCC2OC1C1CCCCC21` (stereo not drawn) [Compound 76] showed a solubility in data set [1] of 500 µM (≈ 111 µg/mL).

In general, IC50 refers to the concentration that gives 50% inhibition. On to `C=C1CC[C@H](C(C)C)[C@@H]2[C@H]1[C@H]1C[C@](C)(O)[C@@H](O)CC[C@@](C)(O)[C@@H]2O1` [sclerophytin A], for which the 50% inhibitory concentration (IC50) in data set [7] is 3 nM. Besides, the effect on proliferation entry in the data set with PC3 cells [8] was “no effect on proliferation”. Also, the inhibition of migration in the data set with cancer cells is reported as 85%.
